# Laboratory results from patent publication US6737383B1, “Herbicidal oxadiazolidines” (priority 1999, dated 2004).
# How the values were obtained:
# bedstraw = experiment: Test B pre/postemergence bedstraw; assay type: in vivo, Galium aparine
# Procedure, shortened: (§1)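 Herbicidal effect was estimated by eye on a ten-point control scale after plants spent twelve to sixteen days in a greenhouse following soil or foliar treatment. Foliar sprays targeted plants at one to four leaves; all doses were formulated in a non-phytotoxic solvent with surfactant.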
# blackgrass = experiment: Test B pre/postemergence blackgrass; assay type: in vivo, Alopecurus myosuroides
# Procedure, shortened: as §1
# surinam grass = experiment: Test B pre/postemergence surinam grass; assay type: in vivo, Brachiaria decumbens
# Procedure, shortened: as §1
# cocklebur = experiment: Test B pre/postemergence cocklebur; assay type: in vivo, Xanthium strumarium
# Procedure, shortened: as §1
# crabgrass = experiment: Test B pre/postemergence crabgrass; assay type: in vivo, Digitaria sanguinalis
# Procedure, shortened: as §1
# giant foxtail = experiment: Test B pre/postemergence giant foxtail; assay type: in vivo, Setaria faberii
# Procedure, shortened: as §1
# morningglory = experiment: Test B pre/postemergence morningglory; assay type: in vivo, Ipomoea hederacea
# Procedure, shortened: as §1
# pigweed = experiment: Test B pre/postemergence pigweed; assay type: in vivo, Amaranthus retroflexus
# Procedure, shortened: as §1
# soybean = experiment: Test B pre/postemergence soybean; assay type: in vivo, Glycine max
# Procedure, shortened: as §1
# velvetleaf = experiment: Test B pre/postemergence velvetleaf; assay type: in vivo, Abutilon theophrasti
# Procedure, shortened: as §1
# wheat = experiment: Test B pre/postemergence wheat; assay type: in vivo, Triticum aestivum
# Procedure, shortened: as §1
# wild oat = experiment: Test B pre/postemergence wild oat; assay type: in vivo, Avena fatua
# Procedure, shortened: as §1
# purple nutsedge = experiment: Test B pre/postemergence purple nutsedge; assay type: in vivo, Cyperus rotundus
# Procedure, shortened: as §1
# rice = experiment: Test B flood test rice; assay type: in vivo, Oryza sativa
# Procedure, shortened: (§2)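 Each value is a visual injury score relative to controls, with 10 meaning complete control and 0 no effect. Evaluation took place twelve to sixteen days after the 2-leaf-stage plants were treated and kept in the greenhouse.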
# smallflower flatsedge = experiment: Test B flood test smallflower flatsedge; assay type: in vivo, Cyperus difformis
# Procedure, shortened: as §2
# bamyardgrass = experiment: Test B flood test barnyardgrass; assay type: in vivo, Echinochloa crus-galli
# Procedure, shortened: as §2
# [1] = Postemergence, Rate 250 g/ha, scale 0 to 10
# [2] = Preemergence, Rate 125 g/ha, scale of 0 to 10 where 0 is no effect and 10 is complete control
# [3] = Preemergence, Rate 250 g/ha, scale 0 to 10, 0 is no effect, 10 is complete control
# [4] = Preemergence, Rate 500 g/ha, scale 0 to 10, 0 is no effect, 10 is complete control
# [5] = Rate 125 g/ha, Postemergence, scale 0 to 10, 0 is no effect, 10 is complete control
# [6] = Rate 1000 g/ha, Preemergence, scale 0 to 10 (0 no effect, 10 complete control)
# [7] = Postemergence, Rate 500 g/ha, scale of 0 to 10 where 0 is no effect and 10 is complete control
# [8] = Postemergence, Rate 1000 g/ha, scale 0 to 10 (0 no effect, 10 complete control)
# [9] = Pre-emergence, Rate 1000 g/ha, scale 0 to 10 (0 no effect, 10 complete control)
# [10] = Rate 125 g/ha, under heading Pre-emergence, flood test species, visual evaluation after twelve to sixteen days
# [11] = Rate 250 g/ha, Pre-emergence (flood test species), scale 0 to 10, 0 is no effect, 10 is complete control
# [12] = Rate 500 g/ha, Pre-emergence, flood test species, scale 0 to 10 (0 no effect, 10 complete control)
compound,measurement,setting,value
CCOP(=O)(OCC)C(C)n1c(=O)on(C(=O)N(c2ccccc2)C(C)C)c1=O (stereo not shown) [Compound 448],Bedstraw plant response rating,bedstraw; [1],0
same,"Plant response rating, Bedstraw",bedstraw; [2],0
same,Bedstraw plant response rating,bedstraw; [3],0
same,Bedstraw plant response rating,bedstraw; [4],0
same,Bedstraw plant response rating,bedstraw; [5],0
same,"Plant response rating, Bedstraw",bedstraw; [6],0
same,Blackgrass plant response rating,blackgrass; [1],0
same,Blackgrass plant response rating,blackgrass; [7],0
same,Blackgrass plant response rating,blackgrass; [8],2
same,"Plant response rating, Blackgrass",blackgrass; [2],0
same,Blackgrass plant response rating,blackgrass; [3],0
same,Blackgrass plant response rating,blackgrass; [4],2
same,Blackgrass plant response rating,blackgrass; [5],0
same,"Plant response rating, Blackgrass",blackgrass; [6],4
same,B. signalgrass plant response rating,"surinam grass; Postemergence, Rate 250 g/ha, scale 0 to 10, 0 no effect, 10 complete control",0
same,B. signalgrass plant response rating,surinam grass; [7],0
same,B. signalgrass plant response rating,surinam grass; [8],0
same,"Plant response rating, B. signalgrass",surinam grass; [2],0
same,B. signalgrass plant response rating,surinam grass; [3],0
same,B. signalgrass plant response rating,surinam grass; [4],2
same,B. signalgrass plant response rating,surinam grass; [5],0
same,"Plant response rating, B. signalgrass",surinam grass; [6],4
same,Cocklebur plant response rating,cocklebur; [1],0
same,Cocklebur plant response rating,cocklebur; [7],0
same,Cocklebur plant response rating,cocklebur; [8],0
same,"Plant response rating, Cocklebur",cocklebur; [2],0
same,Cocklebur plant response rating,cocklebur; [3],0
same,Cocklebur plant response rating,cocklebur; [5],0
same,Crabgrass plant response rating,crabgrass; [1],0
same,Crabgrass plant response rating,crabgrass; [7],0
same,Crabgrass plant response rating,crabgrass; [8],0
same,"Plant response rating, Crabgrass",crabgrass; [2],4
same,Crabgrass plant response rating,crabgrass; [3],4
same,Crabgrass plant response rating,crabgrass; [4],9
same,Crabgrass plant response rating,crabgrass; [5],0
same,"Plant response rating, Crabgrass",crabgrass; [6],9
same,Giant foxtail plant response rating,giant foxtail; [1],0
same,Giant foxtail plant response rating,giant foxtail; [7],0
same,Giant foxtail plant response rating,giant foxtail; [8],0
same,"Plant response rating, Giant foxtail",giant foxtail; [2],2
same,Giant foxtail plant response rating,giant foxtail; [3],3
same,Giant foxtail plant response rating,giant foxtail; [4],9
same,Giant foxtail plant response rating,giant foxtail; [5],0
same,"Plant response rating, Giant foxtail",giant foxtail; [6],9
same,Morningglory plant response rating,morningglory; [1],2
same,Morningglory plant response rating,morningglory; [7],5
same,Morningglory plant response rating,morningglory; [8],8
same,"Plant response rating, Morningglory",morningglory; [2],0
same,Morningglory plant response rating,morningglory; [3],0
same,Morningglory plant response rating,morningglory; [4],0
same,Morningglory plant response rating,morningglory; [5],0
same,"Plant response rating, Morningglory",morningglory; [6],0
same,Redroot pigweed plant response rating,pigweed; [1],0
same,Redroot pigweed plant response rating,pigweed; [7],0
same,Redroot pigweed plant response rating,pigweed; [8],0
same,"Plant response rating, Redroot pigweed",pigweed; [2],0
same,Redroot pigweed plant response rating,pigweed; [3],0
same,Redroot pigweed plant response rating,pigweed; [4],0
same,Redroot pigweed plant response rating,pigweed; [5],0
same,"Plant response rating, Redroot pigweed",pigweed; [6],0
same,Soybean plant response rating,soybean; [1],2
same,Soybean plant response rating,soybean; [7],5
same,Soybean plant response rating,soybean; [8],6
same,"Plant response rating, Soybean",soybean; [2],0
same,Soybean plant response rating,soybean; [3],0
same,Soybean plant response rating,soybean; [4],0
same,Soybean plant response rating,soybean; [5],1
same,"Plant response rating, Soybean",soybean; [6],0
same,Velvetleaf plant response rating,velvetleaf; [1],0
same,Velvetleaf plant response rating,velvetleaf; [7],0
same,Velvetleaf plant response rating,velvetleaf; [8],2
same,"Plant response rating, Velvetleaf",velvetleaf; [2],0
same,Velvetleaf plant response rating,velvetleaf; [3],0
same,Velvetleaf plant response rating,velvetleaf; [4],0
same,Velvetleaf plant response rating,velvetleaf; [5],0
same,"Plant response rating, Velvetleaf",velvetleaf; [6],0
same,Wheat plant response rating,wheat; [1],0
same,Wheat plant response rating,wheat; [7],0
same,Wheat plant response rating,wheat; [8],0
same,"Plant response rating, Wheat",wheat; [2],0
same,Wheat plant response rating,wheat; [3],0
same,Wheat plant response rating,wheat; [4],0
same,Wheat plant response rating,wheat; [5],0
same,"Plant response rating, Wheat",wheat; [6],0
same,Wild oats plant response rating,wild oat; [1],0
same,Wild oats plant response rating,wild oat; [7],0
same,Wild oats plant response rating,wild oat; [8],4
same,"Plant response rating, Wild oats",wild oat; [2],0
same,Wild oats plant response rating,wild oat; [3],0
same,Wild oats plant response rating,wild oat; [4],0
same,Wild oats plant response rating,wild oat; [5],0
same,"Plant response rating, Wild oats",wild oat; [6],5
same,Nutsedge plant response rating,purple nutsedge; [1],0
same,Nutsedge plant response rating,purple nutsedge; [7],0
same,Nutsedge plant response rating,purple nutsedge; [8],0
same,"Plant response rating, Nutsedge",purple nutsedge; [2],0
same,Nutsedge plant response rating,purple nutsedge; [3],0
same,Nutsedge plant response rating,purple nutsedge; [4],0
same,Nutsedge plant response rating,purple nutsedge; [5],0
same,"Plant response rating, Nutsedge",purple nutsedge; [6],0
same,Rice plant response rating,rice; [9],0
same,"Rice plant response rating (0 to 10 scale, 0 is no effect, 10 is complete control)",rice; [10],0
same,Rice plant response rating,rice; [11],0
same,Rice plant response rating,rice; [12],0
same,S. Flatsedge plant response rating,smallflower flatsedge; [9],0
same,"S. Flatsedge plant response rating (0 to 10 scale, 0 is no effect, 10 is complete control)",smallflower flatsedge; [10],0
same,S. Flatsedge plant response rating,smallflower flatsedge; [11],0
same,S. Flatsedge plant response rating,smallflower flatsedge; [12],0
same,Barnyardgrass plant response rating,bamyardgrass; [9],0
same,"Barnyardgrass plant response rating (0 to 10 scale, 0 is no effect, 10 is complete control)",bamyardgrass; [10],0
same,Barnyardgrass plant response rating,bamyardgrass; [11],0
same,Barnyardgrass plant response rating,bamyardgrass; [12],0
